Experimental data as given in patent publication US9809573B2, “Substituted pyridine derivatives useful as GSK-3 inhibitors” (priority 2013, dated 2017).
Where two headings read alike, the source gives them in different places.

Columns and labels:
GSK3β = GSK3β (Homo sapiens, UniProt P49841); assay: GSK3β kinase assay (Caliper LabChip3000, fluoresceinated peptide substrate); type: biochemical
Method in brief: (§1)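 Reactions run 20 hours at room temperature, stopped with EDTA. Phosphorylated and unphosphorylated fluoresceinated peptide separated electrophoretically on Caliper LabChip3000. Eleven compound concentrations tested; IC50 by non-linear regression.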

GSK3α = GSK3α (Homo sapiens, UniProt P49840); assay: biochemical
GSK3α, sequence (P49840 whole entry, species assumed): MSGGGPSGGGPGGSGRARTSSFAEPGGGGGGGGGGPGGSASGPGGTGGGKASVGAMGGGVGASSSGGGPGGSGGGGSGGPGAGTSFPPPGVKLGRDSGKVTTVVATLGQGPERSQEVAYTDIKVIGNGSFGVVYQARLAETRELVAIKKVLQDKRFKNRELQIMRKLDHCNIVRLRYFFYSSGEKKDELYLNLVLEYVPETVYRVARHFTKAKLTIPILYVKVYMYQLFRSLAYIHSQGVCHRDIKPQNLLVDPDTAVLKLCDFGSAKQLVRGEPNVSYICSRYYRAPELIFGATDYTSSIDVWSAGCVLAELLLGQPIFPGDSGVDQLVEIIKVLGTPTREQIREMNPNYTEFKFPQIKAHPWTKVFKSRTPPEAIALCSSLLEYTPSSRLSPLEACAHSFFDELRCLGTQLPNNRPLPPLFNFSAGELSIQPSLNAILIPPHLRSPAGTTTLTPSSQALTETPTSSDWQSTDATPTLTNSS
Method in brief: as §1

pTau = pTau assay (method not described); type: cell-based
[1] = first value of the cell, 250 pM enzyme, 20 uM ATP, 20 hours at room temperature, read-out: GSK3β/α (nM): GSK3β IC50
[2] = second value of the cell, 250 pM enzyme, 20 uM ATP, 20 hours at room temperature, read-out: GSK3β/α (nM): GSK3α IC50

GSK3β, sequence (P49841 whole entry, species assumed): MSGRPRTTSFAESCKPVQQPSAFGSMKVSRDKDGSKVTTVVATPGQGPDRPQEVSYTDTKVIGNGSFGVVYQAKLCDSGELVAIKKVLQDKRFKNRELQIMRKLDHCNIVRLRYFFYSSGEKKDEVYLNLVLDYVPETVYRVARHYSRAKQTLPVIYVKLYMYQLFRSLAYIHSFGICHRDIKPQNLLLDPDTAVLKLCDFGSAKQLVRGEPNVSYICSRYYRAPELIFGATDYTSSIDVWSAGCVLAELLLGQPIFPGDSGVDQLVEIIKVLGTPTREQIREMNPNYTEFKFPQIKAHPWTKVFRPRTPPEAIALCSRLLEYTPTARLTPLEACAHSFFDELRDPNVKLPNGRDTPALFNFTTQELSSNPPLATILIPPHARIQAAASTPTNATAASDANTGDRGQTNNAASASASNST

Row | IC50 (GSK3α) [nM] | IC50 (pTau; read-out: pTau (nM)) [nM] | IC50 (GSK3β; [1]) [nM] | IC50 (GSK3α; [2]) [nM] | IC50 (pTau; read-out: pTau) [nM] | SMILES | IC50 (GSK3β) [nM]
1 | 0.6 | 130 | – | – | – | O=C(Nc1cncc(-c2cccc(F)c2F)c1)c1ccnc(NC(=O)C2CCC(F)(F)C2)c1 (stereo not drawn) [Example 235, 2-(3,3-difluorocyclopentanecarboxamido)-N-(5-(2,3-difluorophenyl)pyridin-3-yl)isonicotinamide] | 1.4
2 | – | – | 4.3 | 2.1 | 180 | O=C(Nc1cncc(-c2cc(F)ccc2F)c1)c1ccnc(NC(=O)C2CCC(F)(F)C2)c1 (stereo not drawn) [Example 236, 2-(3,3-difluorocyclopentanecarboxamido)-N-(5-(2,5-difluorophenyl)pyridin-3-yl)isonicotinamide] | –
3 | – | – | 0.11 | 0.07 | 8.3 | CCC1(c2cc(Cl)ncc2NC(=O)c2ccnc(NC(=O)C3CCC(F)(F)C3)c2)OCCO1 (stereo not drawn) [Example 238, N-(6-chloro-4-(2-ethyl-1,3-dioxolan-2-yl)pyridin-3-yl)-2-(3,3-difluorocyclopentanecarboxamido)isonicotinamide] | –

Row | SMILES | IC50 (GSK3α) [nM] | IC50 (pTau; read-out: pTau (nM)) [nM] | IC50 (GSK3β; [1]) [nM] | IC50 (GSK3α; [2]) [nM] | IC50 (pTau; read-out: pTau) [nM] | IC50 (GSK3β) [nM]
4 | O=C(Nc1cncc(-c2ccccc2Cl)c1)c1ccnc(NC(=O)C2CCC(F)(F)C2)c1 (stereo not drawn) [Example 237, N-(5-(2-chlorophenyl)pyridin-3-yl)-2-(3,3-difluorocyclopentanecarboxamido)isonicotinamide] | – | – | – | 0.78 | 94 | 4.1
